Results from ChEMBL document CHEMBL1142249, “Identification and optimization of a novel series of [2.2.1]-oxabicyclo imide-based androgen receptor antagonists” (Bioorg Med Chem Lett, 2008).

How the values were obtained:
Androgen receptor [1] = target: T1, Androgen receptor (Homo sapiens, UniProt P10275); test: Displacement of [3H]DHT from human androgen receptor in MDA453 cells
T1 sequence (P10275 whole entry): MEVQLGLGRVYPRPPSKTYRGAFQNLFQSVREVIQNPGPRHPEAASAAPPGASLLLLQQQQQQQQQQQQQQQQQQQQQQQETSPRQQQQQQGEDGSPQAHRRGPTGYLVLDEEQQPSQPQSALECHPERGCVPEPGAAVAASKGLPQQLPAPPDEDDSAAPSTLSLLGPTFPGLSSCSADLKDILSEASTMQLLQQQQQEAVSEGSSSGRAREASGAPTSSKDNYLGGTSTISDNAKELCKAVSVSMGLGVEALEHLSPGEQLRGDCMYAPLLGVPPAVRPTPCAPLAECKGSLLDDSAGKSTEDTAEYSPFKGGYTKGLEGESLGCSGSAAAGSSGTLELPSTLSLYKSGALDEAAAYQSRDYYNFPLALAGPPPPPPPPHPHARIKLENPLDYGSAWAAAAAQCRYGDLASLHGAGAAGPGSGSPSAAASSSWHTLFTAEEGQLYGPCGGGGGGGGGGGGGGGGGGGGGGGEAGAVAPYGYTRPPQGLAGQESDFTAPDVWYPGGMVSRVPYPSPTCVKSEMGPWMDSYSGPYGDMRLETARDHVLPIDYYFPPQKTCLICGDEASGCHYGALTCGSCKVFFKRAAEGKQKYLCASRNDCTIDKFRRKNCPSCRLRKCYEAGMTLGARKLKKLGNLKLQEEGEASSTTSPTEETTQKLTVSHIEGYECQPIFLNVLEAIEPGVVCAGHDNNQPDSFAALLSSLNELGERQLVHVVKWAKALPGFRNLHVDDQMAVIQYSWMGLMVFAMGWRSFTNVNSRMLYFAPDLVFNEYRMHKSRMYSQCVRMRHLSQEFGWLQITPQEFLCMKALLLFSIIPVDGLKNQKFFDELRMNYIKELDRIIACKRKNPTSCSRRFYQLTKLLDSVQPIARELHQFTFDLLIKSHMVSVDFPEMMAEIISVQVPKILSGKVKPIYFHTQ

Liver microsomes = test: Metabolic stability in human liver microsome assessed per milligram of protein; assay type: ADME
Androgen receptor [2] = target: T1, Androgen receptor
Description: Antagonist activity at human androgen receptor in MDA453 cells by alkaline phosphatase reporter gene assay

[3] = Tmax in BALB/c mouse at 1.0 mmol/kg, po; assay type: ADME, organism-based; conditions: in vivo
[4] = AUC (0 to 6 hrs) in BALB/c mouse at 1.0 mmol/kg, po; assay type: ADME, organism-based; parameters: dose 1 mmol/kg, time < 6 hr, route oral; conditions: plasma
[5] = Cmax in BALB/c mouse at 1.0 mmol/kg, po; assay type: ADME, organism-based; parameters: dose 1 mmol/kg, route oral; conditions: in vivo
[6] = Drug level in human CWR22R cells xenografted mouse plasma at 90 mg/kg, po after 24 hrs on day 60; assay type: ADME, organism-based; parameters: dose 90 mg/kg, route oral; conditions: read-out: Drug uptake
[7] = Drug level in human CWR22R cells xenografted mouse plasma at 10 mg/kg, po after 24 hrs on day 60; assay type: ADME, organism-based; parameters: dose 10 mg/kg, route oral; conditions: read-out: Drug uptake
[8] = Drug level in human CWR22R cells xenografted mouse plasma at 10 mg/kg, po after 1 hr on day 60; assay type: ADME, organism-based; parameters: dose 10 mg/kg, route oral; conditions: read-out: Drug uptake
[9] = Drug level in human CWR22R cells xenografted mouse plasma at 90 mg/kg, po after 1 hr on day 60; assay type: ADME, organism-based; parameters: dose 90 mg/kg, route oral; conditions: read-out: Drug uptake
[10] = Drug level in human CWR22R cells xenografted mouse plasma at 50 mg/kg, po after 24 hrs on day 60; assay type: ADME, organism-based; parameters: dose 50 mg/kg, route oral; conditions: read-out: Drug uptake
[11] = Drug level in human CWR22R cells xenografted mouse plasma at 50 mg/kg, po after 1 hr on day 60; assay type: ADME, organism-based; parameters: dose 50 mg/kg, route oral; conditions: read-out: Drug uptake

Compound | Ki (Androgen receptor [1]) | IC50 (Androgen receptor [2]) | also measured
CC12C[C@@H](O)C(C)(O1)[C@H]1C(=O)N(c3ccc(C#N)c(I)c3)C(=O)[C@H]12 (some centres undefined) | 2.41 nM | 19 nM | Stability (Liver microsomes): 0.04 mmol/min/mg
N#Cc1ccc(N2C(=O)[C@@H]3C4CCC(O4)[C@@H]3C2=O)cc1C(F)(F)F | 1170 nM | 2860 nM | 
CC12CCC(C)(O1)[C@H]1C(=O)N(c3ccc(C#N)c4nsnc34)C(=O)[C@H]12 | 3 nM | 16 nM | 
O=C1[C@@H]2C3CCC(O3)[C@@H]2C(=O)N1c1ccc([N+](=O)[O-])c2ccccc12 | 3 nM | > 5000 nM | Tmax [3]: 30 min; AUC(0-t) at 6 h [4]: 11.4 µM·h; Cmax [5]: 100 µM
O=C1[C@@H]2C3CCC(O3)[C@@H]2C(=O)N1c1ccc(Cl)c([N+](=O)[O-])c1 | 692 nM | 1150 nM | 
CC12CCC(C)(O1)[C@H]1C(=O)N(c3ccc([N+](=O)[O-])c4c(Br)cccc34)C(=O)[C@H]12 | 17 nM | 40 nM | 
CC12CCC(C)(O1)[C@H]1C(=O)N(c3ccc(C#N)n4nccc34)C(=O)[C@H]12 | 18 nM | 88 nM | 
CC12CCC(C)(O1)[C@H]1C(=O)N(c3c(N)ccc4ncsc34)C(=O)[C@H]12 | 17 nM | 120 nM | 
CC12C[C@H](O)C(C)(O1)[C@@H]1C(=O)N(c3ccc(C#N)c(I)c3)C(=O)[C@@H]12 (some centres undefined) | 7.18 nM | 10 nM | concentration at 24 h [6]: 23.6 µM; concentration at 24 h [7]: 8 µM; Stability (Liver microsomes): 0.001 mmol/min/mg; concentration at 1 h [8]: 26 µM; concentration at 1 h [9]: 55.5 µM
O=C1[C@@H]2C3CCC(O3)[C@@H]2C(=O)N1c1cccc(C(F)(F)F)c1 | 4100 nM | 11500 nM | 
CC12CCC(C)(O1)[C@H]1C(=O)N(c3cnc(C#N)c(Cl)c3)C(=O)[C@H]12 | 4 nM | 38 nM | 
Cc1ccc(N2C(=O)[C@@H]3C4CCC(O4)[C@@H]3C2=O)cc1Cl | 486 nM | 2290 nM | 
CC12CCC(C)(O1)[C@H]1C(=O)N(c3cccc(C(F)(F)F)c3)C(=O)[C@H]12 | 41 nM | 36 nM | 
CC(O)(CS(=O)(=O)c1ccc(F)cc1)C(=O)Nc1ccc(C#N)c(C(F)(F)F)c1 (centres undefined) [BICALUTAMIDE] |  |  | concentration at 24 h [10]: 86 µM; Tmax [3]: 30 min; AUC(0-t) at 6 h [4]: 786 µM·h; Cmax [5]: 110 µM; concentration at 1 h [11]: 48.5 µM
CSc1cc(N2C(=O)[C@@H]3[C@H](C2=O)C2(C)CCC3(C)O2)ccc1C#N | 3 nM | 19 nM | 
CC12CCC(C)(O1)[C@H]1C(=O)N(c3ccc(C#N)c(C(F)(F)F)c3)C(=O)[C@H]12 | 17 nM | 7 nM | 
COc1cc(N2C(=O)[C@@H]3[C@H](C2=O)C2(C)CCC3(C)O2)ccc1-c1cnco1 | 12 nM | 20 nM | 
O=C1[C@H]2C3CCC(C3)N2C(=O)N1c1cccc(C(F)(F)F)c1 (some centres undefined) | 21 nM | 130 nM | Tmax [3]: 30 min; AUC(0-t) at 6 h [4]: 11.4 µM·h; Cmax [5]: 1.74 µM
O=C1[C@@H]2C3CCC(C3)[C@@H]2C(=O)N1c1cccc(C(F)(F)F)c1 | 360 nM | 152 nM | Tmax [3]: 30 min; AUC(0-t) at 6 h [4]: 0.056 µM·h; Cmax [5]: 0.023 µM
CC12CCC(C)(O1)[C@H]1C(=O)N(c3c(N)ccc4nccn34)C(=O)[C@H]12 | 27 nM | 70 nM | 
O=C1[C@@H]2C3CCC(O3)[C@@H]2C(=O)N1c1ccc(Cl)c(Cl)c1 | 377 nM | 480 nM | 
CC12CCC(C)(O1)[C@H]1C(=O)N(c3ccc([N+](=O)[O-])c(C(F)(F)F)c3)C(=O)[C@H]12 | 17 nM | 11 nM | 
CC(C)(C)OC(=O)N1CC2CC1[C@@H]1C(=O)N(c3ccc(C#N)c(C(F)(F)F)c3)C(=O)N21 (some centres undefined) | 40 nM | 774 nM | 
CC12CCC(C)(O1)[C@H]1C(=O)N(c3ccc(C#N)c(I)c3)C(=O)[C@H]12 | 1 nM | 7 nM | Stability (Liver microsomes): 0.8 mmol/min/mg
Cc1cc(N2C(=O)[C@@H]3C4CCC(O4)[C@@H]3C2=O)ccc1Cl | 77 nM | 500 nM | 
CC12CCC(C)(O1)[C@H]1C(=O)N(c3cc(Cl)cc(Cl)c3)C(=O)[C@H]12 | 3 nM | 16 nM | 
O=C1[C@@H]2C3CCC(O3)[C@@H]2C(=O)N1c1ccc(Br)c2ccccc12 | 53 nM | 670 nM | 
CC12CCC(O1)[C@H]1C(=O)N(c3cccc(C(F)(F)F)c3)C(=O)[C@H]12 (some centres undefined) | 410 nM | 343 nM | 
O=C1[C@@H]2C3CCC(O3)[C@@H]2C(=O)N1c1ccc(I)c(Cl)c1 | 221 nM | 350 nM | 
O=C1[C@@H]2C3CCC(O3)[C@@H]2C(=O)N1c1ccc(Cl)c(C(F)(F)F)c1 | 1110 nM | 3310 nM | 
